The values below come from PubChem BioAssay AID540365 (The Scripps Research Institute Molecular Screening Center, 2011).

Activity calls are given as the source filed them. No rule for the calls is given here. A value given as a limit tells only on which side of the number the result lay.

This experiment concerns the target Neuropeptides B/W receptor type 1 (Homo sapiens) (UniProt P48145). In words: NPBW1 receptor blockers in cells – cell-based, fluorescence, dose response, set 3, late-stage follow-up (AID 540365). The note with it: GPR7-expressing cells, fluorescence antagonist read-out.

Turning to `COc1ccc(Sc2c(Cl)cnn(Cc3cccc4ccccc34)c2=O)cc1`, the IC50 is 0.66 µM (run 1) and 1.03 µM (run 2).
For the compound `COc1ccc(Oc2c(Cl)cnn(C(c3ccccc3)c3ccccc3)c2=O)cc1`, the IC50 is 0.58 µM (run 1), 0.497 µM (run 2) and 0.481 µM (run 3).
On to `COc1ccc(Oc2c(Cl)cnn(Cc3ccc4ccccc4c3)c2=O)cc1`, for which the IC50 reads like this: (run 1) 1.48 µM; (run 2) 1.95 µM; (run 3) 2.02 µM.
As to `CCOc1ccc(Oc2c(Cl)cnn(C3c4ccccc4-c4ccccc43)c2=O)cc1`, the IC50 is 0.48 µM (run 1), 0.168 µM (run 2) and 0.207 µM (run 3).
As to `CCOc1ccc(Oc2c(Cl)c(Br)nn(Cc3cccc4ccccc34)c2=O)cc1`, the IC50 is, setting by setting: (run 1) 0.177 µM; (run 2) 0.237 µM.
Turning to `COc1ccc(Oc2c(Cl)cnn(Cc3cccc4cnccc34)c2=O)cc1`, the IC50 by setting is: (run 1) 3.4 µM; (run 2) 4.1 µM; (run 3) 4.93 µM.
For the compound `CCOC(=O)C(c1ccccc1)n1ncc(Cl)c(Oc2ccc(OC)cc2)c1=O` (centres undefined), the IC50 is, setting by setting: (run 1) 1.32 µM; (run 2) 0.864 µM; (run 3) 0.953 µM.
On the same counts, the results for `COc1ccc(Oc2c(Cl)cnn(Cc3c(F)cccc3F)c2=O)cc1` are 0.843 µM, 0.726 µM and 0.719 µM.
For `CCOC(=O)C(c1cccc2ccccc12)n1ncc(Cl)c(Oc2ccc(OC)cc2)c1=O` (centres undefined), the IC50 (run 1) is 0.451 µM, the IC50 (run 2) is 0.597 µM and the IC50 (run 3) was 1.31 µM.
With `COc1ccc(Oc2c(C#N)cnn(Cc3cccc4ccccc34)c2=O)cc1`, the IC50 runs as follows: (run 1) 1.31 µM; (run 2) 1.69 µM; (run 3) 2.49 µM.
`COc1ccc(Oc2c(Cl)c(C#N)nn(Cc3ccccc3C)c2=O)cc1`: the IC50 was 1.09 µM (run 1), 1.27 µM (run 2) and 1.19 µM (run 3).
On to `C=Cc1nn(Cc2ccccc2C)c(=O)c(Oc2ccc(OC)cc2)c1C=C`, for which the IC50 (run 1) was 0.418 µM, the IC50 (run 2) is 0.808 µM and the IC50 (run 3) was 0.818 µM.
Regarding `COc1ccc(Oc2c(Br)cnn(Cc3cccc4ccccc34)c2=O)cc1`, the IC50 reads like this: (run 1) 0.132 µM; (run 2) 0.242 µM; (run 3) 0.24 µM.
For `CCCOc1ccc(Oc2c(Cl)cnn(C3c4ccccc4-c4ccccc43)c2=O)cc1`, the IC50 (run 1) is > 20 µM (inactive), the IC50 (run 2) was > 20 µM (inactive) and the IC50 (run 3) is > 20 µM (inactive).
On to `COc1ccc(Nc2c(Cl)cnn(Cc3cccc4ccccc34)c2=O)cc1`, for which, where the note is “run 1”, the IC50 result is “inactive”. Also, the half-inhibitory concentration (IC50) was 9.47 µM (run 2) and > 20 µM (inactive) (run 3).
Consider `CCCOc1ccc(Oc2c(Cl)cnn(Cc3cccc4ccccc34)c2=O)cc1`, for which the concentration for half-maximal inhibition (IC50) (run 1) is 1.14 µM, the half-inhibitory concentration (IC50) (run 2) was 1.08 µM and the IC50 (run 3) was 1.12 µM.
Consider `CCOc1ccc(Oc2c(S(C)=O)cnn(Cc3cccc4ccccc34)c2=O)cc1` (centres undefined), for which the IC50 runs as follows: (run 1) 2.22 µM; (run 2) 2.13 µM; (run 3) 2.09 µM.

In general, IC50 refers to the concentration that gives 50% inhibition.
